Series [1] deals with P. falciparum (strain W2) asexual blood stage parasites. The experiment in a line: microbe, parasite or virus in culture. The series is classed as cell-based, Plasmodium falciparum.
Another series concerns P. vivax liver schizonts. The series can be described thus: microbe, parasite or virus in culture. Format: cell-based, Plasmodium vivax.
Another series concerns P. vivax hypnozoites. The series can be described thus: microbe, parasite or virus in culture. Format: cell-based, Plasmodium vivax.
In series [2] the test system is primary human hepatocytes.
Series [3] in a line: in vitro. The conditions noted are these: human.
Series [4] is described as follows: in vitro. To be noted: human. This is another data set of the same source.
[5] abbreviates: Plasmodium vivax, Hepatocyte, 288 h, read-out: P. vivax schizont EC50.
Where [6] appears, read: Plasmodium vivax, read-out: P. vivax schizont pEC50 (converted).
The mark [7] stands for this setting: Plasmodium vivax, Hepatocyte, 288 h, read-out: P. vivax hypnozoite EC50.
Setting [8] is: Plasmodium vivax, read-out: P. vivax hypnozoite pEC50 (converted).

Read-outs that look alike come from different tables or passages of the source. Where only a bound is given, the exact number is not on record here.

By CC50 is commonly meant the concentration giving 50% cytotoxicity. In the case of `CC(=O)OC[C@]12CCC(C)=C[C@H]1O[C@@H]1[C@H](O)[C@@H](OC(C)=O)[C@@]2(C)[C@]12CO2` [anguidine, diacetoxyscirpenol], the EC50 in series [1] (read-out: P. falciparum ABS (W2) EC50) is 6.16 nM; with P. vivax liver schizonts (read-out: P. vivax schizont EC50), 13.5 nM; with P. vivax hypnozoites (read-out: P. vivax hypnozoite EC50), 36.3 nM. Moreover, in the series on P. vivax hypnozoites, the “P. vivax hypnozoite pEC50” value is recorded as 36.3 (7.44 ± 0.75). The “HepG2 Tox pCC50” value in the series on HepG2 cells is listed as 27.5 (7.56 ± 0.08). In the series with HepG2 cells, the “cytotoxicity (in words)” value was “cytotoxic”. The CC50 in the series on HepG2 cells (read-out: HepG2 Tox CC50) amounted to 27.5 nM; in series [2] (read-out: PHH Tox CC50), 380 nM. In series [2], the “PHH Tox pCC50” value was 380 (6.42 ± 0.31).

As for `C[C@H]1[C@@H](O)O[C@@H]2O[C@@]3(C)CC[C@H]4[C@H](C)CC[C@@H]1[C@@]24OO3` [dihydroartemisinin], the EC50 is 1.44 nM in series [1] (Plasmodium falciparum, W2, 72 h, read-out: P. falciparum ABS (W2) EC50) and 1.45 nM in series [1] (Plasmodium falciparum, W2, 72 h, read-out: P. falciparum ABS (W2) pEC50 (converted)).

`CO[C@@H]1C[C@@H](C[C@H]2CC[C@H](C)[C@H]([C@@H](C)C(=O)O)O2)O[C@]2(O[C@](C)([C@H]3CC[C@@](C)([C@@H]4O[C@@H]([C@H]5O[C@@](O)(CO)[C@H](C)C[C@@H]5C)C[C@@H]4C)O3)C[C@H]2C)[C@@H]1C` [nigericin]: the EC50 with P. vivax liver schizonts (setting [5]) was 5.13 nM; in the series on P. vivax liver schizonts (setting [6]) it was 5.13 nM; with P. vivax hypnozoites (setting [7]) it was 12.3 nM; with P. vivax hypnozoites (setting [8]), 12.3 nM. The “PHH Tox pCC50” value in series [2] (human) was >200 (6.70 ± 0.00). Further, in the series “in vitro [3]” (PHH Tox CC50), the CC50 was above 200 nM.

In the case of `COc1ccc(C[C@H](N)C(=O)N[C@H]2[C@@H](O)[C@H](n3cnc4c(N(C)C)ncnc43)O[C@@H]2CO)cc1` [puromycin], the EC50 was 2290 nM in the series on P. vivax liver schizonts (setting [5]), 2290 nM with P. vivax liver schizonts (setting [6]), 776 nM in the series on P. vivax hypnozoites (setting [7]) and 776 nM with P. vivax hypnozoites (setting [8]). The 50% cytotoxic concentration (CC50) amounted to 398 nM in the series “in vitro [4]” (HepG2 Tox CC50), 398 nM in the series “in vitro [4]” (HepG2 Tox pCC50), 1740 nM in the series “in vitro [3]” (PHH Tox CC50) and 1740 nM in the series “in vitro [3]” (PHH Tox pCC50).

(Values after paper PMC10897926 (Journal of Natural Products, 2024).)
